Results: US20160045505A1, “COMPOUNDS AND COMPOSITIONS FOR THE TREATMENT OF PARASITIC DISEASES” (NOVARTIS AG, priority 2013, published 2016)
pEC50: −log10 of the molar value. Where two headings read alike, the source gives them in different places.

Experiments:
[1] = test system: L. donovani HU3 strain in mouse peritoneal macrophages; test: Assay for proliferation of Leishmania parasites in infected mouse peritoneal macrophages (SybrGreen staining, high-content imaging, 5 days); type: cell-based, Leishmania donovani; details: Leishmania donovani, Peritoneal macrophage; for pEC50: L. donovani in mouse peritoneal macrophages, read-out: L. donovani Macrophage EC50
[2] = test system: Trypanosoma cruzi amastigotes (Tulahuen strain expressing Lac-Z) cultured in 3T3 fibroblast cells; test: microbe, parasite or virus in culture; type: cell-based; details: Trypanosoma cruzi, TULAHUEN
[3] = test system: Leishmania donovani axenic amastigote parasites; test: Leishmania donovani axenic amastigote proliferation assay (Cell TiterGlo luminescence, 2 day incubation); type: cell-based; details: Leishmania donovani; for pEC50: read-out: L. donovani amastigotes EC50
[4] = Fibroblast, T. cruzi amastigotes in 3T3 fibroblast cells, inhibition of proliferation, read-out: T cruzi EC50
[5] = axenic amastigotes, inhibition of proliferation
[6] = Fibroblast, T. cruzi amastigotes in 3T3 fibroblast cells, read-out: T cruzi EC50

Structure (SMILES) | pEC50 ([1]; inhibition of proliferation) | pEC50 [2, 4] | pEC50 [3, 5] | further results
CC(C)OC(=O)Nc1cnc2nc(-c3cc(NC(=O)c4ccc(F)o4)ccc3F)cn2c1 [Compound 63] | 6.65 | 6.91 | 7.05 | 
CC(=O)Nc1cnc2nc(-c3cc(NC(=O)c4oc(C)nc4C)ccc3F)cn2c1 [Compound 525, N-(3-(6-acetamidoimidazo[1,2-a]pyrimidin-2-yl)-4-fluorophenyl)-2,4-dimethyloxazole-5-carboxamide] |  |  |  | EC50 ([1]; read-out: L. donovani Macrophage EC50 (μM)): 21.1 µM; EC50 ([2]; Fibroblast, read-out: T cruzi EC50 (μM)): > 20 µM; EC50 ([3]; read-out: L. donovani amastigotes EC50 (μM)): 5.35 µM
CC(C)OC(=O)Nc1cnc2nc(-c3cc(NC(=O)c4ccc(F)s4)ccc3F)cn2c1 [Compound 67] | 5.95 | 6.87 | 6.17 | 
O=C(Nc1ccc(F)c(-c2cn3cc(-c4ccc(CCN5CCOCC5)cc4)cnc3n2)c1)N1CCCC1 [Compound 352] | 7.21 | 7.74 | 6.67 | 
O=C(Nc1ccc(F)c(-c2cn3cc(C4CCOCC4)cnc3n2)c1)N1CCCC1 [Compound 419] |  |  |  | pEC50 [1]: 6.74; pEC50 [2, 6]: 6.94; pEC50 ([3]; L. donovani axenic amastigotes): 7.11
CC(C)NNC(=O)Nc1cnc2nc(-c3cc(NC(=O)N4CCCC4)ccc3F)cn2c1 [Compound 522] |  |  |  | pEC50 [1]: < 4.30; pEC50 [2, 6]: < 4.70; pEC50 ([3]; L. donovani axenic amastigotes): 4.71
Cc1cc(C(=O)Nc2ccc(F)c(-c3cn4cc(NC(=O)OC(C)C)cnc4n3)c2)n[nH]1 [Compound 77] | < 4.30 | < 4.70 | 5.03 | 
CC(=O)OC(C)C(=O)Nc1ccc(Cl)c(-c2cn3cc(NC(=O)OC(C)C)cnc3n2)c1 (stereo not shown) [Compound 56] | < 4.30 | 4.94 | 4.72 | 
Cc1cnoc1C(=O)Nc1ccc(F)c(-c2cn3cc(NC(=O)OC(C)C)cnc3n2)c1 [Compound 111] | < 4.30 | < 4.70 | < 4.60 | 
CC(C)(CO)c1nc(Nc2ccc(F)c(-c3cn4cc(C5CC5)cnc4n3)c2)no1 [Compound 596] |  |  |  | pEC50 [1]: 7.12; pEC50 [2, 6]: 5.43; pEC50 ([3]; L. donovani axenic amastigotes): < 4.67
O=C(Nc1ccc(F)c(-c2cn3cc(-c4ccccn4)cnc3n2)c1)N1CC(F)C1 [Compound 400] |  |  |  | pEC50 [1]: 6.69; pEC50 [2, 6]: 6.70; pEC50 ([3]; L. donovani axenic amastigotes): 7.35
C[Si](C)(C)CCOCn1cnc(-c2cnc3nc(-c4cc(NC(=O)N5CCCC5)ccc4Cl)cn3c2)c1 [Compound 344] | 6.80 | 7.29 | 7.14 | 
COC(C)C(=O)Nc1ccc(Cl)c(-c2cn3cc(NC(=O)OC(C)C)cnc3n2)c1 (stereo not shown) [Compound 54] | 4.84 | 5.89 | 5.71 | 
Cc1nc(C)c(C(=O)Nc2ccc(F)c(-c3cn4cc(NC(=O)c5ccc(F)cn5)cnc4n3)c2)o1 [Compound 187] | < 4.30 | 6.85 | 7.51 | 
NNC(=O)Nc1cnc2nc(-c3cc(NC(=O)N4CCCC4)ccc3F)cn2c1 [Compound 521, N-(4-fluoro-3-(6-(hydrazinecarboxamido)imidazo[1,2-a]pyrimidin-2-yl)phenyl)pyrrolidine-1-carboxamide] |  |  |  | pEC50 [1]: 4.42; pEC50 [2, 6]: 5.03; pEC50 ([3]; L. donovani axenic amastigotes): 5.33
Cc1nc(C)c(C(=O)Nc2ccc(F)c(-c3cn4cc(NC(C)C)cnc4n3)c2)o1 [Compound 481] |  |  |  | pEC50 [1]: 6.37; pEC50 [2, 6]: 6.82; pEC50 ([3]; L. donovani axenic amastigotes): 6.68
COC1CC(NC(=O)Nc2ccc(Cl)c(-c3cn4cc(NC(=O)OC(C)C)cnc4n3)c2)C1 (stereo not shown) [Compound 284] | 4.77 | 4.89 | < 4.60 | 
CC(C)OC(=O)Nc1cnc2nc(-c3cc(NC(=O)c4cnc(Cl)s4)ccc3Cl)cn2c1 [Compound 51] | 5.03 | 5.83 | 5.42 | 
CC(C)OC(=O)Nc1cnc2nc(-c3cc(NC(=O)C4CCCCO4)ccc3Cl)cn2c1 (stereo not shown) [Compound 57] | 5.53 | 6.39 | 6.06 | 

Structure (SMILES) | pEC50 ([1]; inhibition of proliferation) | pEC50 [2, 4] | pEC50 [3, 5] | further results
CNc1ccc(-c2cnc3nc(-c4cc(NC(=O)N5CCCC5)ccc4F)cn3c2)cc1 [Compound 351] | 6.89 | 7.02 | 7.15 | 
O=C(Nc1ccc(F)c(-c2cn3cc(Nc4ncccc4C(F)(F)F)cnc3n2)c1)N1CCCC1 [Compound 191] | 6.84 | 7.48 | 7.55 | 
CC(C)OC(=O)Nc1cnc2nc(-c3cc(NC(=O)N4CC(F)C4)ccc3Cl)cn2c1 [Compound 283] | 6.14 | 5.88 | 6.61 | 
Cc1nc(C)c(C(=O)Nc2ccc(F)c(-c3cn4cc(-c5ccccc5)cnc4n3)c2)o1 [Compound 333] | 7.06 | 7.80 | 7.06 | 
CC(C)OC(=O)Nc1cnc2nc(-c3cccc(NC(=O)c4ccc(F)o4)c3)cn2c1 [Compound 3, propan-2-yl N-{2-[3-(5-fluorofuran-2-amido)phenyl]imidazo[1,2-a]pyrimidin-6-yl}carbamate] | 6.37 | 6.29 | 6.62 | 
CC(C)OC(=O)Nc1cnc2nc(-c3cc(NC(=O)N4CCC(C)(C(=O)O)C4)ccc3Cl)cn2c1 (stereo not shown) [Compound 280] | < 4.38 | < 4.70 | < 4.60 | 
COc1cnc2nc(-c3cc(NC(=O)N4CCCC4)ccc3F)cn2c1 [Compound 536, N-(4-fluoro-3-(6-methoxyimidazo[1,2-a]pyrimidin-2-yl)phenyl)pyrrolidine-1-carboxamide] |  |  |  | pEC50 [1]: 5.70; pEC50 [2, 6]: 6.82; pEC50 ([3]; L. donovani axenic amastigotes): 6.46
O=C(Nc1ccc(F)c(-c2cn3cc(-n4cn[nH]c4=O)cnc3n2)c1)N1CCCC1 [Compound 534, N-(4-fluoro-3-(6-(5-oxo-1H-1,2,4-triazol-4(5H)-yl)imidazo[1,2-a]pyrimidin-2-yl)phenyl)pyrrolidine-1-carboxamide] |  |  |  | pEC50 [1]: < 4.30; pEC50 [2, 6]: < 4.70; pEC50 ([3]; L. donovani axenic amastigotes): < 4.63
CC(C)NC(=O)Nc1ccc(Cl)c(-c2cn3cc(NC(=O)OC(C)C)cnc3n2)c1 [Compound 277] | 4.97 | 5.41 | 5.16 | 
CC(C)OC(=O)Nc1cnc2nc(-c3cc(NC(=O)N4CC(N(C)C(=O)OC(C)(C)C)C4)ccc3F)cn2c1 [Compound 293] | < 4.42 | < 4.78 | < 4.60 | 
CC(C)OC(=O)Nc1cnc2nc(-c3cc(NC(=O)N4CC5(COC5)C4)ccc3F)cn2c1 [Compound 294] | < 4.35 | < 4.70 | < 4.60 | 
CC(C)OC(=O)Nc1cnc2nc(-c3cc(NC(=O)N4CCC4)ccc3Cl)cn2c1 [Compound 278] | 5.97 | 5.96 | 6.75 | 
O=C(Nc1ccc(F)c(-c2cn3cc(-c4ccccc4Cl)cnc3n2)c1)N1CCCC1 [Compound 357] | 6.71 | 7.82 | 7.06 | 
CC(C)OC(=O)Nc1cnc2nc(-c3cc(NC(=O)N4CCCC4(C)C)ccc3Cl)cn2c1 [Compound 282] | 5.00 | 5.13 | < 4.60 | 
CC(C)OC(=O)Nc1cnc2nc(-c3cc(NC(=O)c4ccc(C#N)o4)ccc3Cl)cn2c1 [Compound 48] | 6.86 | 6.80 | 7.09 | 
CC(C)OC(=O)Nc1cnc2nc(-c3cc(NC(=O)c4ccc(F)o4)ccc3Cl)cn2c1 [Compound 1, Propan-2-yl N-{2-[2-chloro-5-(5-fluorofuran-2-amido)phenyl]imidazo[1,2-a]pyrimidin-6-yl}carbamate] | 6.61 | 7.52 | 7.06 | pEC50 ([2]; NIH3T3, 144 h, T. cruzi amastigotes in 3T3 cells, 6 day incubation, read-out: EC50): 7.52
Cc1nc(C)c(C(=O)Nc2ccc(F)c(-c3cn4cc(N5CCOCC5)cnc4n3)c2)o1 [Compound 490] |  |  |  | pEC50 [1]: 6.42; pEC50 [2, 6]: 6.80; pEC50 ([3]; L. donovani axenic amastigotes): 6.87
O=C(Nc1ccc(F)c(-c2cn3cc(C4=CCOCC4)cnc3n2)c1)N1CCCC1 [Compound 353] | 6.95 | 7.28 | 7.29 | 
O=C(Nc1ccc(F)c(-c2cn3cc(-c4ccccn4)cnc3n2)c1)N1CCC1 [Compound 404] |  |  |  | pEC50 [1]: 7.47; pEC50 [2, 6]: 7.77; pEC50 ([3]; L. donovani axenic amastigotes): 7.96
